In paper PMC3124361 (Journal of medicinal chemistry, 2011):
Converted amounts (≈) assume the structure as drawn. “And” between values parts separate entries of the source, which are not always exact repeats. Identical values can stand only once. Like-named read-outs stand apart in the source and are kept apart here.

Columns and labels:
[1] = molecular target: T1, PfDHODH (Plasmodium falciparum, UniProt Q08210); assay: PfDHODH DCIP dye-based enzyme assay; assay type: biochemical; conditions: for IC50: IC50 PfDHODH
T1 sequence (Q08210 158-569 limits assumed): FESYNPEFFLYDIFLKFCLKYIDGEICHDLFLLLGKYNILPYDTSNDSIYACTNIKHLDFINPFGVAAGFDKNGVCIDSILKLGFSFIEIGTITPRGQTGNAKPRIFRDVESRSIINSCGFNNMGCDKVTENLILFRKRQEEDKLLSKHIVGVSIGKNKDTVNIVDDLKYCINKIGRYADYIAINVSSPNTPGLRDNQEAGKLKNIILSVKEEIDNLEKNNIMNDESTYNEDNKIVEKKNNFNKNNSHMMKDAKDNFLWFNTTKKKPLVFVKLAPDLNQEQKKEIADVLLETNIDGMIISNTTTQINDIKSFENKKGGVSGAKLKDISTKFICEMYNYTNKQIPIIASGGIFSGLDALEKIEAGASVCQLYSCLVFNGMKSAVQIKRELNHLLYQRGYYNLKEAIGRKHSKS

[2] = Non-equilibrium solubility by nephelometry, pH 6.5; assay type: physicochemical; conditions: for solubility: phosphate buffer
[3] = molecular target: human albumin (Homo sapiens, UniProt P02768); assay: Protein binding estimated on human albumin column; assay type: in vitro ADME; conditions: human albumin chromatographic method
human albumin, sequence (P02768 25-609): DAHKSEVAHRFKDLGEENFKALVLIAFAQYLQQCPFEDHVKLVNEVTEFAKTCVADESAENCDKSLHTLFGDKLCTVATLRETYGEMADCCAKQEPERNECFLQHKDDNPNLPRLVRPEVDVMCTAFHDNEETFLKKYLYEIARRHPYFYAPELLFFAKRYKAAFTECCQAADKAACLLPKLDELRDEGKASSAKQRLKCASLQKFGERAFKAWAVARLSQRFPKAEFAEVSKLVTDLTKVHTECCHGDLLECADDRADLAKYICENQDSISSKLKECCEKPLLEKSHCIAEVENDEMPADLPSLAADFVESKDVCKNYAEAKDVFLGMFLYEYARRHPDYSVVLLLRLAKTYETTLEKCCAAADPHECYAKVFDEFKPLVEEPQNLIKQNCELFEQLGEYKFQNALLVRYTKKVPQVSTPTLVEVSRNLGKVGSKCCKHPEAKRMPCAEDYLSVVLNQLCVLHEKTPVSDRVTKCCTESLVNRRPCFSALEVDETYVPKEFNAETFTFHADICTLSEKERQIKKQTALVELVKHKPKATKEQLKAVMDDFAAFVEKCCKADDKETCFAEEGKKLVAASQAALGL

[4] = In vitro metabolism in human liver microsomes; assay type: in vitro ADME; conditions: for microsomal CLint at 1 μM: microsomes, pH 7.4; for Eh Human: predicted hepatic extraction ratio
[5] = In vitro metabolism in mouse liver microsomes; assay type: in vitro ADME; conditions: for microsomal CLint at 1 μM: microsomes, pH 7.4; for Eh Mouse: predicted hepatic extraction ratio
[6] = Mouse systemic exposure after single oral dose; assay type: in vivo; conditions: single oral dose 20 mg/kg, plasma
[7] = molecular target: hDHODH (Homo sapiens, UniProt Q02127); conditions: read-out: IC50 hDHODH; reported previously; ref [13], [15]; cited from earlier work
hDHODH, sequence (Q02127 31-395 limits assumed): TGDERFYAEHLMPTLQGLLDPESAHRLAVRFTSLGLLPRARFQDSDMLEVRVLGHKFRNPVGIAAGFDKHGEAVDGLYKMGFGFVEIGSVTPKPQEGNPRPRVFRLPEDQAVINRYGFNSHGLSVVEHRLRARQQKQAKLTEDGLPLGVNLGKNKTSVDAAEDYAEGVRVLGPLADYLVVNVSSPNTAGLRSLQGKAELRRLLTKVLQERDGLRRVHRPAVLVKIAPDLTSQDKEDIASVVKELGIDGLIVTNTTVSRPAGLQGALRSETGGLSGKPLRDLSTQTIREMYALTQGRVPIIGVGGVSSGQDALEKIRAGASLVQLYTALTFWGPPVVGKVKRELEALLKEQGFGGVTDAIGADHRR

[8] = test system: P. falciparum 3D7 cells; conditions: cited from earlier work
[9] = ref [13], [15], cited from earlier work; for Eh Human: predicted hepatic extraction ratio
[10] = ref [13], [15], cited from earlier work
[11] = test system: P. berghei NK65 ANKA strain; conditions: cited from earlier work
[12] = test system: P. falciparum 3D7 cells; assay: P. falciparum whole cell assay; assay type: cell-based, Plasmodium falciparum
[13] = Rat pharmacokinetics after IV and oral administration; assay type: in vivo; conditions: for adverse reactions following IV or oral administration: either dose route; for clearance: male, Sprague Dawley, in vivo, iv
[14] = test system: rat plasma proteins; assay: Protein binding in rat plasma by ultracentrifugation; assay type: in vitro ADME; conditions: 37°C
[15] = test system: P. berghei NK65 ANKA strain; assay: Peter's test, P. berghei efficacy in mice; assay type: in vivo, Plasmodium berghei; conditions: for ED50: Plasmodium berghei, in Mus musculus, po, read-out: ED50 95% confidence interval; for adverse reactions attributed to drug: any of the dose levels, efficacy study in mice

## Cc1cc(Nc2ccc3c(c2)CCCC3)n2ncnc2n1 [Compound 33, 5-methyl-N-(5,6,7,8-tetrahydronaphthalen-2yl)-[1,2,4]triazolo[1,5-a]pyrimidin-7-amine]
[1]
  IC50: 35 nM
[1]; stated in text
  IC50: < 100 nM and ~30 nM
[2]
  solubility: 89 to 179 µM (≈ 24.9 to 50 µg/mL)
[3]
  Human Plasma Binding: 95.5%
[4]
  microsomal CLint at 1 μM: > 30 µL/min/mg
[5]
  microsomal CLint at 1 μM: > 30 µL/min/mg

## Cc1cc(Nc2ccc(C(C)(C)C)cc2)n2ncnc2n1 [Compound 15, N-(4-tert-Butylphenyl)-5-methyl-[1,2,4]triazolo[1,5-a]pyrimidin-7-amine]
[1]; stated in text
  IC50: < 100 nM
[2]
  aqueous solubility at pH 6.5 (in words): poorly soluble
  solubility: 11 to 22 µM (≈ 3.09 to 6.19 µg/mL)
[3]
  Human Plasma Binding: 93.2%
[4]
  microsomal CLint at 1 μM: > 30 µL/min/mg
[5]
  microsomal CLint at 1 μM: > 30 µL/min/mg

## Cc1cc(Nc2ccc3sccc3c2)n2ncnc2n1 [Compound 36, N-(Benzo[b]thiophen-5yl)-5-methyl-[1,2,4]triazolo[1,5-a]pyrimidin-7-amine]
[1]; stated in text
  IC50: < 100 nM
[2]
  solubility: 22 to 44 µM (≈ 6.19 to 12.4 µg/mL)
[3]
  Human Plasma Binding: 89.8%
[4]
  microsomal CLint at 1 μM: > 30 µL/min/mg
[5]
  microsomal CLint at 1 μM: > 30 µL/min/mg
[6]
  Time above 1 μM: <1 h

## Cc1cc(Nc2ccc(C(C)(C)C)c(F)c2)n2ncnc2n1 [Compound 29, N-(4-tert-Butyl-3-fluorophenyl)-5-methyl-[1,2,4]triazolo[1,5-a]pyrimidin-7-amine]
[1]; stated in text
  IC50: < 100 nM and ~30 nM
[1]; comparator 15
  fold decrease in PfDHODH IC50 vs 15: 2 fold
[2]
  aqueous solubility at pH 6.5 (in words): poorly soluble
[3]
  Human Plasma Binding: 96.4%
[4]
  microsomal CLint at 1 μM: > 30 µL/min/mg
[5]
  microsomal CLint at 1 μM: > 30 µL/min/mg
[6]
  Time above 1 μM: <1 h

## Cc1cc(Nc2ccc3ccccc3c2)n2ncnc2n1 [Compound 1, (5-methyl-[1,2,4]triazolo[1,5-a]pyrimidin-7-yl)-naphthalen-2-yl-amine]
[2]
  solubility: 45 to 90 µM (≈ 12.4 to 24.8 µg/mL)
[3]
  Human Plasma Binding: 93.8%
[7]
  IC50: > 200000 nM
[8]; read-out: EC50 Pf 3D7 cells, serum media, reported previously, ref [13], [15]
  EC50: 76 nM
[8]; read-out: IC50 against the parasite, initial lead, ref [15]
  IC50: 50 to 100 nM
[9]
  Eh Human: 0.84
[10]; mouse liver microsomes, reported previously
  CLint Mouse: 229 μL/min/mg protein
[10]; predicted hepatic extraction ratio, mouse
  Eh Mouse: 0.91

## CCN(CC)CCCC(C)Nc1ccnc2cc(Cl)ccc12 (stereo not shown) [chloroquine, reference compound]
[11]; previous reports, ref [20]
  ED50 in this model: ~2 mg/kg

## Cc1cc(Nc2ccc(S(F)(F)(F)(F)F)cc2)n2ncnc2n1 [Compound 21, N-(4-Pentafluorosulfenylphenyl)-5-methyl-[1,2,4]triazolo[1,5-a]pyrimidin-7-amine]
[1]
  IC50: < 300 nM
[1]; comparator 2
  fold better activity (lower IC50) against PfDHODH than 2: 2-3 fold
[12]
  fold EC50 above the levels for the comparator anti-malarial drugs: 10-200 fold
[2]
  solubility: 71 to 142 µM (≈ 24.9 to 49.9 µg/mL)
[3]
  Human Plasma Binding: 95.4%
[4]
  microsomal CLint at 1 μM: < 6 µL/min/mg
  Eh Human: <0.2/<0.2
[5]
  Eh Mouse: <0.2/<0.2
[6]; 20 mg/kg
  Time above 1 μM: 18 h
[13]
  adverse reactions following IV or oral administration: No adverse reactions
[13]; 5.1 mg/kg
  clearance: 1.2 mL/min/kg
[14]
  binding to rat plasma proteins: 95.2%
[15]; 50 mg/kg BID
  parasite clearance (in words): none of the mice were parasite free on any day
[15]; 100 mg/kg QD
  parasite clearance (in words): none of the mice were parasite free on any day
[15]
  ED50: 10 to 29 mg/kg
  adverse reactions attributed to drug: No adverse reactions

## Cc1cc(Nc2ccc(C(C)C)cc2)n2ncnc2n1 [Compound 14, N-(4-Isopropylphenyl)-5-methyl-[1,2,4]triazolo[1,5-a]pyrimidin-7-amine]
[2]
  solubility: 47 to 94 µM (≈ 12.6 to 25.1 µg/mL)
[3]
  Human Plasma Binding: 91.3%
[4]
  Eh Human: 0.64
[5]
  Eh Mouse: 0.91
[6]
  Time above 1 μM: <1 h

## Cc1cc(NC2Cc3ccccc3C2)n2ncnc2n1 [Compound 45, N-(2,3-Dihydro-1H-inden-2-yl)-5-methyl-[1,2,4]triazolo[1,5-a]pyrimidin-7-amine]
[2]
  aqueous solubility at pH 6.5 (in words): highly soluble
  solubility: 188 to 376 µM (≈ 49.9 to 99.8 µg/mL)
[3]
  Human Plasma Binding: 76.1%
[4]
  microsomal CLint at 1 μM: < 10 µL/min/mg
  Eh Human: < 0.2
[5]
  microsomal CLint at 1 μM: > 25 µL/min/mg
  Eh Mouse: 0.59
[6]
  Time above 1 μM: <1 h

## Cc1cc(Nc2cc(F)c(C(F)(F)F)c(F)c2)n2ncnc2n1 [Compound 32, N-(3,5-difluoro-4-(trifluoromethyl)phenyl)-5-methyl-[1,2,4]triazolo[1,5-a]pyrimidin-7-amine]
[1]
  IC50: < 300 nM
[2]
  aqueous solubility at pH 6.5 (in words): poorly soluble
  solubility: 9 to 18 µM (≈ 2.96 to 5.93 µg/mL)
[3]
  Human Plasma Binding: 96.6%
[4]
  microsomal CLint at 1 μM: < 6 µL/min/mg
  Eh Human: <0.2/<0.2
[5]
  Eh Mouse: <0.2/<0.2
[6]; 20 mg/kg
  Time above 1 μM: 19 h
[13]
  adverse reactions following IV or oral administration: No adverse reactions
[13]; 0.9 mg/kg
  clearance: 2.3 mL/min/kg
[13]; 2.9 mg/kg
  clearance: 1.5 mL/min/kg
[14]
  binding to rat plasma proteins: 97.3%
[15]; 50 mg/kg BID
  parasite clearance (in words): parasite free on day 5
[15]; 100 mg/kg BID, parasites reemerged on day 9
  mice remaining parasite free through day 7: 4/5
[15]; 100 mg/kg QD
  parasite clearance (in words): parasite free on day 5
[15]
  ED50: 7.6 to 13 mg/kg
  adverse reactions attributed to drug: No adverse reactions

## Cc1cc(Nc2ccc(C(F)(F)F)cc2)n2ncnc2n1 [Compound 2, (5-methyl-[1,2,4]triazolo[1,5-a]pyrimidin-7-yl)-(4-trifluoromethyl-phenyl)-amine]
[2]
  solubility: 21 to 43 µM (≈ 6.16 to 12.6 µg/mL)
[3]
  Human Plasma Binding: 86.9%
[9]; human liver microsomes, reported previously
  CLint Human: 8/ND ^a μL/min/mg protein
[9]
  Eh Human: 0.29/ND ^a
[11]; 50 mg/kg BID, 24 h after the last dose, ref [15]
  suppression of parasitemia: 90%
